Experimental data: the supplement of paper PMC10627819

Columns and labels:
[1] = test system: S. aureus Newman; assay: Bliss interaction score (quartile over a dose matrix) (fitness difference); higher = more antagonism (negative = synergy)
In short: (§1)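 Each plate was normalised to the robust mean of its own no-drug wells, using OD595 at entry into stationary phase, with values capped at 1. This normalised growth is the fitness value. The Bliss score is the difference between observed and product-expected fitness, with single-drug fitness inferred from the combination data and quartiles taken over technical, biological and donor/recipient replicates.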

[2] = test system: S. aureus DSM 20231; assay: as above
In short: as §1

[3] = test system: B. subtilis 168; assay: as above
In short: as §1

[4] = test system: S. pneumoniae D39V; assay: as above
In short: as §1

[5] = test system: S. aureus Newman; assay: fitness (endpoint OD595 vs no drug) (fraction); higher = more growth
In short: (§2)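 With the first reading as background, OD595 was measured every 30 min for 14 h in 384-well plates kept at 37 °C and inoculated at OD595 0.01. TSB, LB Lennox or CY was the medium. Fitness is the optical density at the transition into stationary phase divided by the robust mean of no-drug control wells, with a cap of 1.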

[6] = test system: S. aureus DSM 20231; assay: as above
In short: as §2

[7] = test system: B. subtilis 168; assay: as above
In short: as §2

[8] = test system: S. pneumoniae D39V; assay: as above
In short: as §2
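Wherever Bliss interaction score (quartile over a dose matrix) is given: first quartile when negative (synergy) and third quartile when positive (antagonism).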

Cc1ncc([N+](=O)[O-])n1CCO [Metronidazole] + CN(N=O)C(=O)N[C@@H](C=O)[C@@H](O)[C@H](O)[C@H](O)CO [Streptozotocin]
Details | Bliss interaction score
[1] | 0.0626
[2] | -0.0474
[3] | -0.0488
[4] | 0.0474

fitness
Details | first compound 0.625 µg/mL | first compound 1.073 µg/mL | first compound 1.25 µg/mL | first compound 2.145 µg/mL | first compound 2.5 µg/mL | first compound 4.29 µg/mL
[5], partner 0.15 µg/mL | 0.838 | – | 0.833 | – | 0.816 | –
[5], partner 0.3 µg/mL | 0.725 | – | 0.742 | – | 0.731 | –
[5], partner 0.6 µg/mL | 0.579 | – | 0.568 | – | 0.591 | –
[6], partner 0.15 µg/mL | 0.876 | – | 0.888 | – | 0.905 | –
[6], partner 0.3 µg/mL | 0.791 | – | 0.752 | – | 0.831 | –
[6], partner 0.6 µg/mL | 0.683 | – | 0.701 | – | 0.734 | –
[8], partner 1.2 µg/mL | – | 0.942 | – | 0.934 | – | 0.96
[8], partner 2.4 µg/mL | – | 0.961 | – | 0.904 | – | 0.743
[8], partner 4.8 µg/mL | – | 0.966 | – | 0.946 | – | 0.979

fitness, one replicate
Details | partner 0.15 µg/mL | partner 0.3 µg/mL | partner 0.6 µg/mL | partner 1.2 µg/mL | partner 2.4 µg/mL | partner 4.8 µg/mL
[5], first compound 0.781 µg/mL | 0.907 | 0.717 | 0.523 | – | – | –
[5], first compound 1.562 µg/mL | 0.875 | 0.722 | 0.519 | – | – | –
[5], first compound 3.124 µg/mL | 0.796 | 0.709 | 0.505 | – | – | –
[7], first compound 0.625 µg/mL | ≥ 1 | ≥ 1 | ≥ 1 | – | – | –
[7], first compound 1.25 µg/mL | 0.91 | ≥ 1 | ≥ 1 | – | – | –
[7], first compound 2.5 µg/mL | 0.956 | 0.941 | 0.976 | – | – | –
[8], first compound 1.25 µg/mL | – | – | – | ≥ 1 | ≥ 1 | ≥ 1
[8], first compound 2.5 µg/mL | – | – | – | 0.98 | ≥ 1 | ≥ 1
[8], first compound 5 µg/mL | – | – | – | 0.959 | ≥ 1 | ≥ 1

Cc1ncc([N+](=O)[O-])n1CCO [Metronidazole] + CN[C@@H]1[C@H](O)[C@H](NC)[C@H]2O[C@@]3(O)C(=O)C[C@@H](C)O[C@H]3O[C@@H]2[C@H]1O [Spectinomycin]
Details | Bliss interaction score
[1] | 0.0758
[2] | 0.0691
[3] | -0.0603
[4] | 0.044

fitness
Details | partner 2 µg/mL | partner 4 µg/mL | partner 8 µg/mL | partner 16 µg/mL
[5], first compound 0.625 µg/mL | – | 0.94 | 0.909 | 0.929
[5], first compound 0.781 µg/mL | – | 0.893 | 0.974 | 0.91
[5], first compound 1.25 µg/mL | – | 0.98 | 0.98 | 0.932
[5], first compound 1.562 µg/mL | – | 0.93 | 0.998 | 0.928
[5], first compound 2.5 µg/mL | – | 0.951 | 0.926 | 0.926
[5], first compound 3.124 µg/mL | – | 0.895 | 0.98 | 0.935
[6], first compound 0.625 µg/mL | – | 0.973 | 0.944 | 0.887
[6], first compound 1.25 µg/mL | – | 0.946 | 0.958 | 0.852
[6], first compound 2.5 µg/mL | – | 0.976 | ≥ 1 | 0.924
[7], first compound 0.625 µg/mL | 0.947 | 0.963 | 0.949 | –
[7], first compound 1.25 µg/mL | 0.973 | 0.953 | 0.889 | –
[7], first compound 2.5 µg/mL | 0.976 | 0.95 | 0.91 | –
[8], first compound 1.073 µg/mL | – | 0.94 | 0.976 | 0.909
[8], first compound 2.145 µg/mL | – | 0.946 | 0.944 | 0.881
[8], first compound 4.29 µg/mL | – | 0.901 | 0.9 | 0.878

fitness, one replicate
Details | first compound 0.625 µg/mL | first compound 1.25 µg/mL | first compound 2.5 µg/mL | first compound 5 µg/mL
[5], partner 32 µg/mL | 0.685 | 0.656 | 0.596 | –
[5], partner 64 µg/mL | 0.101 | 0.147 | 0.134 | –
[6], partner 32 µg/mL | 0.703 | 0.684 | 0.689 | –
[6], partner 64 µg/mL | 0.0868 | 0.121 | 0.103 | –
[8], partner 4 µg/mL | – | ≥ 1 | ≥ 1 | ≥ 1
[8], partner 8 µg/mL | – | 0.964 | 0.99 | 0.986
